Values of other authors as cited in patent US10166194B2, “Hydrocortisone controlled release formulation” (Diurnal Limited, priority 2012, dated 2019).

## C[C@]12CCC(=O)C=C1CC[C@@H]1[C@@H]2[C@@H](O)C[C@@]2(C)[C@H]1CC[C@]2(O)C(=O)CO [Hydrocortisone]
  half-life: ca. 3 hours
